This series in a line: Stability test (influencing factors: high temperature/humidity and strong light irradiation), total impurities. Format: physicochemical. As to the method: A suitable amount of the crystal of the compound of formula (I) prepared in Example 4 was accurately weighed, and methanol was then added thereto to dissolve the crystal. It was diluted quantitatively to obtain a solution containing about 50 μg of the compound per 1 ml of the solution. 10 μl of the solution was accurately measured and injected into the liquid chromatograph, and the chromatogram was recorded. In addition, a suitable amount of the compound of formula (I) was weighed as a control, and measured by the same method as described in the above. The purity was calculated through external standard method based on peak areas.
Referring to the test method of influencing factors for raw materials described in the Chinese Pharmacopoeia, 2010 edition, Part II, Appendix XIX C, a high-temperature experiment (40° C.±2° C. and a relative humidity of 75%±5%) and strong light irradiation experiment (4500l×±500l×) were conducted on the crystal of the compound of formula (I) prepared in Example 4 for 10 days, respectively. Samples were taken on day 0 and day 10 to measure a total amount of impurities and determine the stability.

Take `Cn1c(Nc2ccc(I)cc2Cl)c(C(=O)NOCCO)c2occc2c1=O` [6-(2-chloro-4-iodophenylamino)-N-(2-hydroxylethyoxyl)-5-methyl-4-oxo-4,5-dihydrofuro[3,2-c]pyridine-7-carboxamide]: the “Total amount of impurities (%)” value runs as follows: (At 40° C., 10 days (40° C.±2° C., relative humidity 75%±5%)) 0.60%; (Day 0) 0.57%; (Irradiation for 10 days (strong light, 4500l×±500l×)) 0.68%.

For the origin of these results see patent US10023582B2, “6-aryl amino pyridone formamide compound crystal and preparation method therefor” (Chia Tai Tianqing Pharmaceutical Group Co., Ltd., priority 2014, dated 2018).
